Assay: gradient 5% acetonitrile 3 min, to 50% in 2 min, to 85% in 15 min, held 3 min, 100 µL/min
Settings: column: Zorbax Extend-C18 2.1 x 50 mm; eluents: water / acetonitrile, 0.1% formic acid
Method in brief: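 The mobile phases were water and acetonitrile, each with 0.1% formic acid, pumped at 100 μL/min through a Zorbax Extend-C18 column (2.1 × 50 mm, 1.8 μm). Pure standards were injected as mixtures of ~100 molecules and detected by a quadrupole time-of-flight mass spectrometer in positive and negative ionization mode. Retention time came from computationally picked adduct peaks, each inspected by hand.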

| RP-LC retention time [s] | Structure (SMILES) |
| --- | --- |
| 622 | Cc1nccn1-c1cc(C(C)C)c(C#N)c2nc3ccccc3n12 |
| 1010 | Cc1cc(C)n(-c2cc(Nc3ccc(F)cc3)ncn2)n1 |
| 964 | COc1cccc(-c2noc(C3CCCN3C(=O)Nc3ccc(Br)cc3)n2)c1 (stereo not given) |
| 592 | O=C(C1CCN(c2ncnc3c2nc2n3CCCCC2)CC1)N1CCN(c2ccccn2)CC1 |
| 720 | CN(CC1CCOCC1)C(=O)Nc1cccc(F)c1 |
| 610 | Cc1cccc(NC(=O)N2CCC(N3CCN(Cc4ccccn4)C(=O)C3=O)CC2)c1 |
| 778 | O=C(C1CCCN(c2cnc3nccnc3c2)C1)N1CCN(c2ccccc2F)CC1 (stereo not given) |
| 673 | CCC(=O)N1CCc2cc(C(=O)N(C)C)ccc21 |
| 824 | C=CCNC(=O)c1cn(-c2ccc(-c3nc(C(C)C)no3)cn2)cn1 |
| 744 | CCn1cc(-c2nc(-c3ccccn3)no2)c(=O)c2cc(F)c(N3CCOCC3)cc21 |
| 1360 | CCCOc1ccc(-c2noc(Cc3nc(-c4cccc(OC)c4)cs3)n2)cc1 |
| 813 | CN1C(=O)c2cccnc2Sc2cc(NC(=O)COc3ccccc3)ccc21 |
| 770 | O=C(Nc1cccc(-c2ccc(N3CCOCC3)nn2)c1)Nc1ccc(F)c(Cl)c1 |
| 614 | O=C(CSc1nnc2sc3ccccc3n12)N1CCOCC1 |
| 661 | O=C1C(c2cccnc2)N(Cc2cccs2)C(=O)CN1c1ccccc1 (stereo not given) |
| 635 | CCOc1ccc(-c2noc(Cn3ccnc3)n2)cc1 |
| 750 | CC(=O)N1CCCc2cc(S(=O)(=O)CCC(=O)N3CCN(c4cccc(C)c4)C(C)C3)ccc21 (stereo not given) |
| 678 | O=C(NCC1CN(c2ccc3c(c2)OCO3)C(=O)O1)c1cccs1 (stereo not given) |
| 620 | O=C(Nc1cccc2ccc(-n3ccnc3)nc12)c1ccc2c(c1)OCO2 |
| 629 | O=S(=O)(c1ccc2c(c1)OCCO2)N1CC[C@@H]2COCCN(Cc3cccnc3)[C@@H]2C1 |
| 655 | CCc1noc(NC(C)=O)c1-c1ccc(OC)c(S(=O)(=O)Nc2ccc(S(N)(=O)=O)cc2)c1 |
| 1000 | O=C(CC1=CCCCC1)N1CC(F)(F)C[C@H]1c1nc(C2CC2)no1 |
| 924 | Cc1ccc(C)c(NC(=O)N2CCc3nc(-c4ccccc4)ncc3C2)c1 |

| RP-LC retention time [s] | Structure (SMILES) |
| --- | --- |
| 606 | Cc1cccc(-c2noc(C3CCCN3C(=O)Nc3ccccc3Cl)n2)c1 (stereo not given) |
| 603 | O=C(NCC(c1ccco1)N1CCN(c2ccc(F)cc2)CC1)c1ccsc1 (stereo not given) |
| 960 | O=C(CCC1CCCN(C(=O)Nc2ccc(Cl)cc2)C1)NCc1cccc(Cl)c1 (stereo not given) |
| 572 | O=C(NCCn1ncccc1=O)c1ccc(S(=O)(=O)N2CCOCC2)cc1 |
| 919 | Cc1ccc2c(c1)C(=O)NC1(CCN(C(=O)c3ccc(F)c(Cl)c3)CC1)N2C |
| 827 | CCOC(=O)c1ccc(Nc2c(-c3ccc(N(C)C)cc3)nc3cnccn23)cc1 |
| 790 | CCn1cc(S(=O)(=O)Nc2ccccc2F)c2cccnc21 |
| 838 | CCOc1ccc(NC(=O)Cn2nc3cc(-c4ccccc4)nc(C)n3c2=O)cc1 |
| 1010 | CCOC(=O)C(Cc1c[nH]c2ccccc12)NC(=O)COc1ccc(Cl)cc1 (stereo not given) |
| 677 | Cc1cc2nc(N3CCOCC3)n(CC(=O)Nc3cc(F)cc(F)c3)c(=O)c2n1C |
| 1010 | CSc1ccc(-c2nc3cnccn3c2NC2CCCCC2)cc1 |
| 688 | O=C(NCc1cccs1)c1ccc2c(c1)NC(=O)C1CCCCN21 (stereo not given) |
| 627 | O=C(CCC(=O)N1CC2CCCN2c2ccccc21)NCCCN1CCCC1 (stereo not given) |
| 693 | CSc1nnc(-c2nn(C)c3c2CN(C(=O)c2cccc(F)c2)CC3)n1C |
| 579 | Cc1ccc(=O)n(CCNC(=O)c2cncc(Br)c2)n1 |
| 843 | Cc1nc(-c2csc(S(=O)(=O)N3CCC(C(=O)NC(C)Cc4ccco4)CC3)c2)no1 (stereo not given) |
| 788 | Cc1cc(C)cc(N2C=C(C(=O)N3CCOCC3)S(=O)(=O)c3ccc(F)cc32)c1 |
| 587 | Cc1scc2nc(C3CCC3)nc(N3CCC(C(=O)N4CCN(c5ccccn5)CC4)CC3)c12 |
| 726 | Cc1cc(NC(=O)CSc2nc3ccccc3o2)sn1 |
| 580 | O=C(Cn1ccnc1)N1CCCC(OCc2nc(C3CC3)no2)C1 (stereo not given) |
| 886 | COc1cc(OC)c(NC(=O)N2CCC3(CC2)N=C(c2cccc(F)c2)C(=O)N3)cc1Cl |
| 797 | Cc1cc(C(F)(F)F)nn1CC(=O)NCC1Cn2cccc2C(=O)N1CC(C)C (stereo not given) |
| 695 | Cc1ccsc1C(=O)Nc1ccc(Cn2cncn2)cc1 |

| RP-LC retention time [s] | Structure (SMILES) |
| --- | --- |
| 706 | O=C(Nc1cccc(-c2cn3cccnc3n2)c1)c1ccc(F)c(F)c1 |
| 1010 | O=c1c2oc3ccccc3c2ncn1Cc1nc(-c2cccc(Cl)c2)no1 |
| 862 | COCCNC(=O)C1CCN(S(=O)(=O)c2ccc3c(c2)NC(=O)CO3)CC1 |
| 902 | O=C(Nc1cccc(F)c1)C(=O)c1cn(CC(=O)N2CCOCC2)c2ccccc12 |
| 996 | Cc1nc(CC(=O)Nc2nc(-c3ccc(Br)cc3)cs2)cs1 |
| 878 | CCCn1c(=O)c(C)nc2cc(-c3noc(C4CC(=O)N(C5CCCC5)C4)n3)ccc21 (stereo not given) |
| 714 | COc1cc(C2=NN(C(C)=O)C(c3ccncc3)O2)cc(OC)c1OC(C)=O (stereo not given) |
| 683 | COc1ccc(CNc2nc(-c3ccccc3)nnc2C)cc1 |
| 658 | CNCc1ccc(-c2ccc(Cl)cc2Cl)o1 |
| 908 | O=c1oc2cc(O)ccc2cc1-c1cc(F)cc(F)c1 |
| 993 | O=c1n(Cc2cccc(C(F)(F)F)c2)nc2c(S(=O)(=O)N3CCCCC3)cccn12 |
| 694 | O=C(Cn1cnc2nc(N3CCC(C(=O)NC4CC4)CC3)sc2c1=O)Nc1cc(F)cc(F)c1 |
| 571 | COC(=O)c1ccc(CN2CCN(c3cnn4c(C5CC5)nnc4c3)CC2)cc1 |
| 865 | O=C(Cc1csc(Nc2ccccc2)n1)NCCC1=CCCCC1 |
| 845 | COc1cccc(NC(=O)C2CCN(S(=O)(=O)c3ccc4c(c3)sc(=O)n4C)CC2)c1 |
| 847 | COc1cccc(C(=O)CSc2ccc(-n3cccn3)nn2)c1 |
| 784 | Cc1cc2nnc(SCC(=O)c3cc(C)n(CC4CCCO4)c3C)n2c2ccccc12 (stereo not given) |
| 867 | Cc1ccc(NC(=O)N2CCC(OC3CCN(S(C)(=O)=O)CC3)CC2)cc1Cl |
| 1090 | COc1nc2ccccc2nc1N1CCCC(C(=O)NC2CCCCCC2)C1 (stereo not given) |
| 691 | N#Cc1cccc(C(=O)NC2CCN(c3cc(-c4ccccc4)[nH]n3)C2)c1 (stereo not given) |
| 712 | Cc1ccc(C)c(NC(=O)N2CC(n3cnnc3-c3ccccc3)C2)c1 |
| 1070 | CC1CCc2c(sc(NC(=O)Cc3ccc4c(c3)OCO4)c2C#N)C1 (stereo not given) |
| 640 | O=C([C@@H]1C[C@H](Oc2cccnc2)CN1C(=O)CCC1CCCC1)N1CCCC1 |

| RP-LC retention time [s] | Structure (SMILES) |
| --- | --- |
| 1050 | O=C(NCCC1=CCCCC1)C(=O)Nc1ccc(Cl)cn1 |
| 765 | O=C(NC1CCCCC1)C1CCN(S(=O)(=O)c2cc(C(=O)N3CCCC3)cs2)CC1 |
| 1030 | CC1CCN(c2cncnc2-n2cc(NC(=O)CC3CCCCC3)cn2)CC1 |
| 713 | O=C(CCc1ccccc1)Nc1ccc2[nH]c(=O)oc2c1 |
| 931 | Cc1c(F)cccc1NC(=O)c1cc2n(n1)CCCC2 |
| 670 | CN1C(=O)c2[nH]nc(-c3ccccc3)c2C1c1ccc(O)cc1 (stereo not given) |
| 820 | Clc1cccc(-n2ncc3c(SCc4cccnc4)ncnc32)c1 |
| 738 | O=C(Nc1ccccc1)N1CCOC(CN(CC2CCCO2)C(=O)c2ccc3c(c2)OCO3)C1 (stereo not given) |
| 705 | CC(C)NC(=O)c1ccc(-c2nc3cc(NS(=O)(=O)c4cc(F)ccc4F)ccc3n2C)cc1 |
| 642 | Cc1ccc(C(CC(=O)NCCN2CCOCC2)N2Cc3ccccc3C2=O)cc1 (stereo not given) |
| 1130 | Clc1ccc(Nc2nc3ccccc3c3nc(C4CCCCC4)[nH]c23)cc1Cl |
| 696 | CCOc1ccc(-c2cc(=O)n(CCCC(=O)Nc3ccc(-n4cnnn4)cc3)cn2)cc1 |
| 772 | CCn1ncc(NC(=O)c2ccc(F)cc2)c(N2CCOCC2)c1=O |
| 651 | Cc1ccccc1-c1nocc1CCC(=O)O |
| 676 | Nc1ncc2c(n1)CC(c1ccco1)CC2=O (stereo not given) |
| 646 | CCCCCn1c(=O)c2ccccc2n(Cc2nc(-c3cc(OC)c(OC)c(OC)c3)no2)c1=O |
| 717 | COCCNC(=O)c1ccc2c(c1)N(Cc1ccc(F)cc1)C(=O)CO2 |
| 694 | COc1ccccc1CNS(=O)(=O)c1cc(-c2[nH]ncc2C(=O)N2CCCC2)oc1C |
| 699 | CCc1ccccc1NC(=O)Cn1c(C(C)C)nc2c(c1=O)CCN(Cc1ccccc1)C2 |
| 823 | CC(C)n1c(N2CCN(C(=O)c3ccc4c(c3)OCO4)CC2)cc(=O)n(C(C)C)c1=O |
| 953 | O=C(Cn1cnc2c(sc3nc(-c4ccccc4)ccc32)c1=O)NCc1ccccc1 |
